Assay results published in the supplement of paper PMC13207355.
Where a name gives a salt, the structure may show the parent alone.

How the values were obtained:
Settings in all cases: exposure time: 72 h
E34 [1] = patient-derived glioblastoma stem cells of proneural subtype; assay: surviving fraction (nuclei count normalised to DMSO); higher = more cells surviving (less toxic)
E31 [2] = patient-derived glioblastoma stem cells of proneural subtype; assay: as above
E57 [3] = patient-derived glioblastoma stem cells of mesenchymal subtype; assay: as above
E13 [4] = patient-derived glioblastoma stem cells of classical subtype; assay: as above
E21 [5] = patient-derived glioblastoma stem cells of mesenchymal subtype; assay: as above
E28 [6] = patient-derived glioblastoma stem cells of classical subtype; assay: as above
FT3469 [7] = normal neural stem cell line; assay: as above
E34 [8] = assay: phenotypic distance (Euclidean, principal components) from DMSO controls (arbitrary units); higher = stronger morphological change
E31 [9] = assay: as above
E57 [10] = assay: as above
E13 [11] = assay: as above
E21 [12] = assay: as above
E28 [13] = assay: as above
FT3469 [14] = assay: as above
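For phenotypic distance (Euclidean, principal components) from DMSO controls in this document: cell Painting imaging in 384-well plates, CellProfiler features reduced to at least 20 principal components, Euclidean distance versus same-plate DMSO vehicle wells (0.1% v/v), median over six images per well.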
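For surviving fraction (nuclei count normalised to DMSO) in this document: nuclei counted by high-content imaging of Hoechst-stained cells in laminin-coated 384-well plates, relative to 0.1% DMSO vehicle wells, with staurosporine as cell-death control.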

CC[C@H]1CN2CCc3cc(OC)c(OC)cc3[C@@H]2C[C@@H]1C[C@H]1NCCc2cc(OC)c(OC)cc21 [Emetine dihydrochloride hydrate]
Settings | phenotypic distance | surviving fraction
E13 [4], 4.1 nM | – | 0.771
E13 [4], 12.3 nM | – | 0.923
E13 [4], 37 nM | – | 0.769
E13 [4], 111.1 nM | – | 0.481
E13 [4], 333.3 nM | – | 0.319
E13 [4], 1000 nM | – | 0.241
E13 [4], 3000 nM | – | 0.2
E13 [11], 4.1 nM | 1.31 | –
E13 [11], 12.3 nM | 0.882 | –
E13 [11], 37 nM | 1.91 | –
E13 [11], 111.1 nM | 4.48 | –
E13 [11], 333.3 nM | 4.34 | –
E13 [11], 1000 nM | 5.43 | –
E13 [11], 3000 nM | 6.58 | –
E21 [5], 4.1 nM | – | 0.907
E21 [5], 12.3 nM | – | 0.921
E21 [5], 37 nM | – | 0.816
E21 [5], 111.1 nM | – | 0.347
E21 [5], 333.3 nM | – | 0.223
E21 [5], 1000 nM | – | 0.153
E21 [5], 3000 nM | – | 0.173
E21 [12], 4.1 nM | 1.08 | –
E21 [12], 12.3 nM | 0.979 | –
E21 [12], 37 nM | 0.851 | –
E21 [12], 111.1 nM | 6.33 | –
E21 [12], 333.3 nM | 4.77 | –
E21 [12], 1000 nM | 3.91 | –
E21 [12], 3000 nM | 3.66 | –
E28 [6], 4.1 nM | – | 0.969
E28 [6], 12.3 nM | – | 1.05
E28 [6], 37 nM | – | 0.901
E28 [6], 111.1 nM | – | 0.385
E28 [6], 333.3 nM | – | 0.258
E28 [6], 1000 nM | – | 0.315
E28 [6], 3000 nM | – | 0.3
E28 [13], 4.1 nM | 0.561 | –
E28 [13], 12.3 nM | 0.727 | –
E28 [13], 37 nM | 1.13 | –
E28 [13], 111.1 nM | 2.77 | –
E28 [13], 333.3 nM | 3.25 | –
E28 [13], 1000 nM | 3.1 | –
E28 [13], 3000 nM | 3.67 | –
E31 [2], 4.1 nM | – | 0.927
E31 [2], 12.3 nM | – | 0.842
E31 [2], 37 nM | – | 0.667
E31 [2], 111.1 nM | – | 0.313
E31 [2], 333.3 nM | – | 0.143
E31 [2], 1000 nM | – | 0.179
E31 [2], 3000 nM | – | 0.101
E31 [9], 4.1 nM | 1.22 | –
E31 [9], 12.3 nM | 1.2 | –
E31 [9], 37 nM | 2.2 | –
E31 [9], 111.1 nM | 5.26 | –
E31 [9], 333.3 nM | 5.72 | –
E31 [9], 1000 nM | 4.54 | –
E31 [9], 3000 nM | 5.99 | –
E34 [1], 4.1 nM | – | 0.908
E34 [1], 12.3 nM | – | 0.885
E34 [1], 37 nM | – | 0.818
E34 [1], 111.1 nM | – | 0.497
E34 [1], 333.3 nM | – | 0.404
E34 [1], 1000 nM | – | 0.387
E34 [1], 3000 nM | – | 0.426
E34 [8], 4.1 nM | 0.73 | –
E34 [8], 12.3 nM | 0.706 | –
E34 [8], 37 nM | 0.904 | –
E34 [8], 111.1 nM | 2.93 | –
E34 [8], 333.3 nM | 3.91 | –
E34 [8], 1000 nM | 4.94 | –
E34 [8], 3000 nM | 4.59 | –
E57 [3], 4.1 nM | – | 0.975
E57 [3], 12.3 nM | – | 0.918
E57 [3], 37 nM | – | 0.84
E57 [3], 111.1 nM | – | 0.354
E57 [3], 333.3 nM | – | 0.157
E57 [3], 1000 nM | – | 0.173
E57 [3], 3000 nM | – | 0.14
E57 [10], 4.1 nM | 1.02 | –
E57 [10], 12.3 nM | 1.01 | –
E57 [10], 37 nM | 0.848 | –
E57 [10], 111.1 nM | 5.15 | –
E57 [10], 333.3 nM | 6.55 | –
E57 [10], 1000 nM | 6.5 | –
E57 [10], 3000 nM | 6.32 | –
FT3469 [7], 4.1 nM | – | 1.12
FT3469 [7], 12.3 nM | – | 1.05
FT3469 [7], 37 nM | – | 0.997
FT3469 [7], 111.1 nM | – | 0.676
FT3469 [7], 333.3 nM | – | 0.511
FT3469 [7], 1000 nM | – | 0.492
FT3469 [7], 3000 nM | – | 0.535
FT3469 [14], 4.1 nM | 0.688 | –
FT3469 [14], 12.3 nM | 0.903 | –
FT3469 [14], 37 nM | 0.792 | –
FT3469 [14], 111.1 nM | 3.79 | –
FT3469 [14], 333.3 nM | 3.87 | –
FT3469 [14], 1000 nM | 3.19 | –
FT3469 [14], 3000 nM | 3.42 | –

CCn1cc(C(=O)O)c(=O)c2cc(F)c(N3CCNCC3)nc21 [Enoxacin]
Settings | phenotypic distance | surviving fraction
E13 [4], 4.1 nM | – | 0.98
E13 [4], 12.3 nM | – | 1.08
E13 [4], 37 nM | – | 0.82
E13 [4], 111.1 nM | – | 1.01
E13 [4], 333.3 nM | – | 0.975
E13 [4], 1000 nM | – | 0.96
E13 [4], 3000 nM | – | 1.05
E13 [11], 4.1 nM | 0.646 | –
E13 [11], 12.3 nM | 0.69 | –
E13 [11], 37 nM | 0.539 | –
E13 [11], 111.1 nM | 0.399 | –
E13 [11], 333.3 nM | 0.457 | –
E13 [11], 1000 nM | 0.745 | –
E13 [11], 3000 nM | 0.954 | –
E21 [5], 4.1 nM | – | 0.976
E21 [5], 12.3 nM | – | 0.98
E21 [5], 37 nM | – | 0.929
E21 [5], 111.1 nM | – | 0.973
E21 [5], 333.3 nM | – | 0.975
E21 [5], 1000 nM | – | 0.987
E21 [5], 3000 nM | – | 0.968
E21 [12], 4.1 nM | 0.648 | –
E21 [12], 12.3 nM | 0.762 | –
E21 [12], 37 nM | 0.7 | –
E21 [12], 111.1 nM | 0.554 | –
E21 [12], 333.3 nM | 0.603 | –
E21 [12], 1000 nM | 0.823 | –
E21 [12], 3000 nM | 0.597 | –
E28 [6], 4.1 nM | – | 0.921
E28 [6], 12.3 nM | – | 1.01
E28 [6], 37 nM | – | 0.969
E28 [6], 111.1 nM | – | 1.22
E28 [6], 333.3 nM | – | 0.982
E28 [6], 1000 nM | – | 0.962
E28 [6], 3000 nM | – | 0.83
E28 [13], 4.1 nM | 0.627 | –
E28 [13], 12.3 nM | 0.793 | –
E28 [13], 37 nM | 0.478 | –
E28 [13], 111.1 nM | 0.94 | –
E28 [13], 333.3 nM | 0.292 | –
E28 [13], 1000 nM | 0.666 | –
E28 [13], 3000 nM | 0.546 | –
E31 [2], 4.1 nM | – | 0.836
E31 [2], 12.3 nM | – | 1
E31 [2], 37 nM | – | 1.09
E31 [2], 111.1 nM | – | 0.95
E31 [2], 333.3 nM | – | 1.02
E31 [2], 1000 nM | – | 1.19
E31 [2], 3000 nM | – | 0.881
E31 [9], 4.1 nM | 0.556 | –
E31 [9], 12.3 nM | 0.523 | –
E31 [9], 37 nM | 0.553 | –
E31 [9], 111.1 nM | 0.528 | –
E31 [9], 333.3 nM | 0.401 | –
E31 [9], 1000 nM | 0.654 | –
E31 [9], 3000 nM | 0.714 | –
E34 [1], 4.1 nM | – | 1.01
E34 [1], 12.3 nM | – | 1.07
E34 [1], 37 nM | – | 1.09
E34 [1], 111.1 nM | – | 0.99
E34 [1], 333.3 nM | – | 1.06
E34 [1], 1000 nM | – | 1.1
E34 [1], 3000 nM | – | 0.885
E34 [8], 4.1 nM | 0.518 | –
E34 [8], 12.3 nM | 0.658 | –
E34 [8], 37 nM | 0.667 | –
E34 [8], 111.1 nM | 0.731 | –
E34 [8], 333.3 nM | 0.276 | –
E34 [8], 1000 nM | 0.843 | –
E34 [8], 3000 nM | 1.19 | –
E57 [3], 4.1 nM | – | 1
E57 [3], 12.3 nM | – | 1.07
E57 [3], 37 nM | – | 1.1
E57 [3], 111.1 nM | – | 1.11
E57 [3], 333.3 nM | – | 1.06
E57 [3], 1000 nM | – | 0.938
E57 [3], 3000 nM | – | 0.959
E57 [10], 4.1 nM | 0.422 | –
E57 [10], 12.3 nM | 0.677 | –
E57 [10], 37 nM | 0.541 | –
E57 [10], 111.1 nM | 0.821 | –
E57 [10], 333.3 nM | 0.482 | –
E57 [10], 1000 nM | 0.537 | –
E57 [10], 3000 nM | 0.807 | –
FT3469 [7], 4.1 nM | – | 0.928
FT3469 [7], 12.3 nM | – | 0.931
FT3469 [7], 37 nM | – | 0.867
FT3469 [7], 111.1 nM | – | 1.02
FT3469 [7], 333.3 nM | – | 1.06
FT3469 [7], 1000 nM | – | 0.928
FT3469 [7], 3000 nM | – | 0.971
FT3469 [14], 4.1 nM | 0.513 | –
FT3469 [14], 12.3 nM | 0.577 | –
FT3469 [14], 37 nM | 0.677 | –
FT3469 [14], 111.1 nM | 0.87 | –
FT3469 [14], 333.3 nM | 0.641 | –
FT3469 [14], 1000 nM | 0.47 | –
FT3469 [14], 3000 nM | 0.868 | –
